# Source: PMC4821887, “Identification of chemicals that mimic transcriptional changes associated with autism, brain aging and neurodegeneration” (Nature Communications, 2016)
# Counter-ions that a name gives are not always drawn. Like-named read-outs stand apart in the source and are kept apart here.
# Tested on: mouse cortical neuron cultures
Compound,% Dead cells (vehicle subtracted) [%],also measured
CCCCOC(=O)C(C)Oc1ccc(Oc2ccc(C(F)(F)F)cn2)cc1 (stereo not drawn) [Fluazifop-butyl],,"% Dead cells (vehicle subtracted) (mouse, 24 h, 0.01 µM): 0.215%; % Dead cells (vehicle subtracted) (mouse, 24 h, 0.1 µM): -0.165%; % Dead cells (vehicle subtracted) (mouse, 24 h, 1 µM): 23.9839%; % Dead cells (vehicle subtracted) (mouse, 24 h, 10 µM): 7.788%"
COCC(C)N(C(=O)CCl)c1c(C)csc1C (stereo not drawn) [Dimethenamid],,"% Dead cells (vehicle subtracted) (mouse, 24 h, 10 µM): -0.353%"
CCOC(=O)COc1cc(-n2ncc(C(F)(F)F)c(C)c2=O)c(F)cc1Cl [Flufenpyr-ethyl],-1.575,
COC(=O)c1ccccc1CS(=O)(=O)NC(=O)Nc1nc(OC)cc(OC)n1 [Bensulfuron-methyl],,"% Dead cells (vehicle subtracted) (mouse, 24 h, 10 µM): -2.606%"
COC(=O)NS(=O)(=O)c1ccc(N)cc1 [Asulam],,"% Dead cells (vehicle subtracted) (mouse, 24 h, 10 µM): 1.255%"
COC(=O)C(C)Oc1ccc(Oc2ccc(Cl)cc2Cl)cc1 (stereo not drawn) [Diclofop-methyl],-2.902,
CC(C)=CC1C(C(=O)OCN2C(=O)C3=C(CCCC3)C2=O)C1(C)C (stereo not drawn) [Tetramethrin],-2.018,
CCCCC(CC)CN1C(=O)C2C3C=CC(C3)C2C1=O (stereo not drawn),-0.09059,
Cc1ccn2nc(S(=O)(=O)Nc3c(F)cccc3F)nc2n1 [Flumetsulam],,"% Dead cells (vehicle subtracted) (mouse, 24 h, 10 µM): 0.4495%"
C=CC1(C)OC(=O)N(c2cc(Cl)cc(Cl)c2)C1=O (stereo not drawn) [Vinclozolin],,"% Dead cells (vehicle subtracted) (mouse, 24 h, 10 µM): -1.854%"
CCSC(=O)N1CCCCCC1 [Molinate],7.609,
Cl[C@H]1[C@H](Cl)[C@@H](Cl)[C@@H](Cl)[C@H](Cl)[C@H]1Cl [Lindane],3.537,
CN(C)NC(=O)CCC(=O)O [Daminozide],-0.7321,
C=CCOC(Cn1ccnc1)c1ccc(Cl)cc1Cl (stereo not drawn) [Imazalil],0.2633,
CCOc1cc(Oc2ccc(C(F)(F)F)cc2Cl)ccc1[N+](=O)[O-] [Oxyfluorfen],-3.765,
COC(=O)c1ccccc1S(=O)(=O)NC(=O)N(C)c1nc(C)nc(OC)n1 [Tribenuron-methyl],,"% Dead cells (vehicle subtracted) (mouse, 24 h, 10 µM): -1.861%"
CCOP(=S)(OCC)Oc1ccc([N+](=O)[O-])cc1 [Parathion],-1.193,
CSC(=O)c1cccc2nnsc12,-0.1497,
COc1cc(Cl)c(OC)cc1Cl [Chloroneb],-0.9422,
COc1ccc(C(c2ccc(OC)cc2)C(Cl)(Cl)Cl)cc1 [Methoxychlor],-0.6222,
Cc1cc(Cl)ccc1OCC(=O)O [MCPA (Agroxone)],9.261,
CN=C=S,3.139,

Compound,% Dead cells (vehicle subtracted) [%],also measured
CN(C)C(=S)SSC(=S)N(C)C [Thiram],0.7821,
COc1cc(OC)nc(NC(=O)[N-]S(=O)(=O)c2ncccc2OCC(F)(F)F)n1.[Na+] [Trifloxysulfuron-sodium],0.5929,
CC(C)(C)C(=O)C(Oc1ccc(Cl)cc1)n1cncn1 (stereo not drawn) [Triadimefon],-0.7492,
OCCOc1ccccc1 [Phenoxyethanol [2-Phenoxyethanol]],4.907,
COC(=O)CSc1cc(/N=c2\sc(=O)n3n2CCCC3)c(F)cc1Cl [Fluthiacet-methyl],,"% Dead cells (vehicle subtracted) (mouse, 24 h, 10 µM): -0.383%"
CCOC1Oc2ccc(OS(C)(=O)=O)cc2C1(C)C (stereo not drawn) [Ethofumesate],-0.3872,
CN(C)[C@@H]1C(O)=C(C(N)=O)C(=O)[C@@]2(O)C(O)=C3C(=O)c4c(O)cccc4[C@@](C)(O)[C@H]3[C@H](O)[C@@H]12 [Oxytetracycline dihydrate],,"% Dead cells (vehicle subtracted) (mouse, 24 h, 0.1 µM): -3.324%; % Dead cells (vehicle subtracted) (mouse, 24 h, 1 µM): -0.5636%; % Dead cells (vehicle subtracted) (mouse, 24 h, 10 µM): 21.6384%"
CC1COC(Cn2cncn2)(c2ccc(Oc3ccc(Cl)cc3)cc2Cl)O1 (stereo not drawn) [Difenoconazole],-2.028,
CCC(=O)Nc1ccc(Cl)c(Cl)c1 [Propanil],-3.018,
c1ccc2[nH]c(-c3cscn3)nc2c1 [Thiabendazole],,"% Dead cells (vehicle subtracted) (mouse, 24 h, 10 µM): -3.658%"
O=c1ccc(=O)[nH][nH]1 [Maleic hydrazide],7.215,
O=[N+]([O-])c1c(Cl)c(Cl)c(Cl)c(Cl)c1Cl [Quintozene],-2.206,
CSc1nc(NC(C)C)nc(NC(C)C)n1 [Prometryn],,"% Dead cells (vehicle subtracted) (mouse, 24 h, 10 µM): -5.322%"
CC1(C)C(C(=O)OC(C#N)c2cccc(Oc3ccccc3)c2)C1(C)C (stereo not drawn) [Fenpropathrin (Danitol)],-1.601,
C=C(C)CN(CC)c1c([N+](=O)[O-])cc(C(F)(F)F)cc1[N+](=O)[O-] [Ethalfluralin],,"% Dead cells (vehicle subtracted) (mouse, 24 h, 10 µM): 1.146%"
O=C(O)C1(C(=O)Nc2ccc(Cl)cc2Cl)CC1 [Cyclanilide],0.6928,
S=C1NCCN1 [Ethylenethiourea (2-Imidazolidinethione)],-0.5482,
O=C(O)C(F)(F)C(F)(F)C(F)(F)C(F)(F)C(F)(F)C(F)(F)C(F)(F)F,-2.482,
Cc1nn(-c2cc(NS(C)(=O)=O)c(Cl)cc2Cl)c(=O)n1C(F)F [Sulfentrazone],,"% Dead cells (vehicle subtracted) (mouse, 24 h, 10 µM): -1.513%"
CCCCSP(=O)(SCCCC)SCCCC [Tribufos],-0.3794,
COP(=O)(OC)O/C(C)=C/C(=O)N(C)C [Dicrotophos],-0.1238,
CCCCOC(=O)c1ccccc1C(=O)OCCCC [Dibutyl phthalate],,"% Dead cells (vehicle subtracted) (mouse, 24 h, 10 µM): -2.722%"

Compound,% Dead cells (vehicle subtracted) [%],also measured
CC1=C(C(=O)Nc2ccccc2)SCCO1,3.189,
CNC(=O)N(C)c1nnc(C(C)(C)C)s1 [Tebuthiuron],-0.9604,
O=C(O)c1nc(Cl)ccc1Cl,-1.907,
CCOC(=O)COc1cc(-c2nn(C)c(OC(F)F)c2Cl)c(F)cc1Cl [Pyraflufen-ethyl],-2.144,
C#CCN1C(=O)COc2cc(F)c(N3C(=O)C4=C(CCCC4)C3=O)cc21 [Flumioxazin],7.054,
CC(C)(C)[C@@H](O)[C@@H](Cc1ccc(Cl)cc1)n1cncn1 (racemic) [Paclobutrazol],,"% Dead cells (vehicle subtracted) (mouse, 24 h, 10 µM): -2.562%"
COC(=O)c1ccc(I)cc1S(=O)(=O)[N-]C(=O)Nc1nc(C)nc(OC)n1.[Na+] [Iodosulfuron-methyl-sodium],-4.352,
CC(C)Oc1cccc(NC(=O)c2ccccc2C(F)(F)F)c1 [Flutolanil],9.589,
CS(=O)(=O)c1ccc(C(=O)C2C(=O)CCCC2=O)c([N+](=O)[O-])c1 [Mesotrione],0.1871,
CCCCC(C#N)(Cn1cncn1)c1ccc(Cl)cc1 (stereo not drawn) [Myclobutanil],-1.6229,
O=P(O)(O)CCCl [Ethephon],,"% Dead cells (vehicle subtracted) (mouse, 24 h, 10 µM): -0.1299%"
CNC(=O)Oc1cccc(N=CN(C)C)c1 [Formetanate hydrochloride],1.887,
CCCOC(=O)c1ccc(C(=O)OCCC)nc1,-2.999,
Nc1c(Cl)cc([N+](=O)[O-])cc1Cl [Dicloran],-0.1169,
CCCCN(CC)c1c([N+](=O)[O-])cc(C(F)(F)F)cc1[N+](=O)[O-] [Benfluralin [Benefin]],-1.412,
CCCC1COC(Cn2cncn2)(c2ccc(Cl)cc2Cl)O1 (stereo not drawn) [Propiconazole],0.7517,
Nc1c(Cl)c(F)nc(OCC(=O)O)c1Cl [Fluroxypyr],,"% Dead cells (vehicle subtracted) (mouse, 24 h, 10 µM): -1.905%"
CCCN(CC)CC1COC2(CCC(C(C)(C)C)CC2)O1 (stereo not drawn) [Spiroxamine],,"% Dead cells (vehicle subtracted) (mouse, 24 h, 10 µM): 7.8727%"
COP(=O)(NC(C)=O)SC (stereo not drawn) [Acephate],-1.8111,
CN/C(=N\[N+](=O)[O-])NCc1cnc(Cl)s1 [Clothianidin],-2.188,
CCCCOC(=O)[C@@H](C)Oc1ccc(Oc2ccc(C(F)(F)F)cn2)cc1,0.5693,
COP(=S)(OC)SCn1nnc2ccccc2c1=O [Azinphos-methyl],-0.9211,

Compound,% Dead cells (vehicle subtracted) [%],also measured
O=C1c2ccccc2C(=O)N1SC(Cl)(Cl)Cl [Folpet],,"% Dead cells (vehicle subtracted) (mouse, 24 h, 10 µM): -1.248%"
CCO/N=C(\CC)C1=C(O)CC(c2c(C)cc(C)cc2C)CC1=O (stereo not drawn) [Tralkoxydim],4.508,
CCOP(=S)(OCC)OC(Cl)C(Cl)(Cl)Cl (stereo not drawn) [Chlorethoxyfos],0.5415,
CNC(=O)Oc1cccc2c1OC(C)(C)O2 [Bendiocarb],9.256,
CSc1nnc(C(C)(C)C)c(=O)n1N [Metribuzin],-0.1172,
CC1(C)CON(Cc2ccccc2Cl)C1=O [Clomazone],-3.452,
CNC(=O)O/N=C(\SC)C(=O)N(C)C [Oxamyl],-2.835,
CCOC(=O)CC(SP(=O)(OC)OC)C(=O)OCC (stereo not drawn) [Malaoxon],-0.008689,
CCc1cccc(C)c1N(C(=O)CCl)C(C)COC (stereo not drawn) [Metolachlor],-3.586,
COP(=O)(OC)SCn1c(=O)oc2cc(Cl)cnc21 [Azamethiphos],-0.5762,
CCOC(=O)C(C)Oc1ccc(Oc2nc3ccc(Cl)cc3o2)cc1 (stereo not drawn) [Fenoxaprop-ethyl],,"% Dead cells (vehicle subtracted) (mouse, 24 h, 10 µM): 9.924%"
COc1cnc(OC)n2nc(NS(=O)(=O)c3c(OCC(F)F)cccc3C(F)(F)F)nc12 [Penoxsulam],,"% Dead cells (vehicle subtracted) (mouse, 24 h, 10 µM): -0.3089%"
CCC/C(=N\OCC)C1=C(O)CC(CC(C)SCC)CC1=O (stereo not drawn) [Sethoxydim],-0.798,
Cc1ccc(/N=C/N(C)/C=N/c2ccc(C)cc2C)c(C)c1 [Amitraz],0.3334,
Cc1cnc(C2=NC(C)(C(C)C)C(=O)N2)c(C(=O)O)c1 (stereo not drawn),-0.5785,
CCOC(=O)C(Cl)Cc1cc(-n2nc(C)n(C(F)F)c2=O)c(F)cc1Cl (stereo not drawn) [Carfentrazone-ethyl],9.785,
COCC(=O)N(c1c(C)cccc1C)C(C)C(=O)OC (stereo not drawn) [Metalaxyl],0.5361,
CCCCOCCOCCOCc1cc2c(cc1CCC)OCO2 [Piperonyl butoxide],,"% Dead cells (vehicle subtracted) (mouse, 24 h, 10 µM): -3.535%"
CCC(C)Nc1c([N+](=O)[O-])cc(C(C)(C)C)cc1[N+](=O)[O-] (stereo not drawn) [Butralin],,"% Dead cells (vehicle subtracted) (mouse, 24 h, 10 µM): 4.6194%"
